Results from patent US6037365A, “Aminobenzamidinosuccinyl lactone derivatives useful as inhibitors of platelet aggregation” (G.D. Searle & Co., priority 1998, dated 2000).
pIC50: −log10 of the molar value. Structures can show the parent of a compound that is named as a salt.

test system: platelet aggregation in platelet-rich plasma (PRP); experiment: In-Vitro Platelet Aggregation in PRP (ADP-induced); assay type: cell-based, dogs; conditions: Canis lupus familiaris, Platelet, dog PRP, ADP 50 μM final concentration, 1 min preincubation at 37° C., aggregation monitored 1 min; unit inferred; read-out: IC50 (dosage at which 50% of platelet aggregation is inhibited)
Description: In-Vitro Platelet Aggregation in PRP
Healthy male or female dogs were fasted for 8 hours prior to drawing blood; then 30 mL whole blood was collected using a butterfly needle and 30 mL plastic syringe with 3 mL of 0.129M buffered sodium citrate (3.8%). The syringe was rotated carefully as blood was drawn to mix the citrate. Platelet-rich plasma (PRP) was prepared by centrifugation at 975×g for 3.17 minutes at room temperature allowing the centrifuge to coast to a stop without braking. The PRP was removed from the blood with a plastic pipette and placed in a plastic-capped 50 mL Corning conical sterile centrifuge tube which was held at room temperature. Platelet-poor plasma (PPP) was prepared by centrifuging the remaining blood at 2000×g for 15 minutes at room temperature allowing the centrifuge to coast to a stop without braking. The PRP was adjusted with PPP to a count of 2-3×10^8 platelets/mL. The PRP preparation (400 μL) and 50 μL of the compound solution to be tested or saline were preincubated for 1 minute at 37° C. in a BioData aggregometer (BioData, Horsham, Pa.). Adenosine-5'-diphosphate (ADP, 50 μL, 50 μM final concentration) was added to the cuvettes and the aggregation was monitored for 1 minute. All compounds are tested in duplicate. Results are calculated as follows: Percent of control=[(maximal OD minus initial OD of compound) divided by (maximal OD minus initial OD of control saline)]×100. The percent inhibition equals 100-(percent of control).
The compounds tested and their median inhibitory concentrations (IC50) are recorded in Table 1. The IC50 (dosage at which 50% of platelet aggregation is inhibited) were calculated by linear regression of the dose response curve.

Point of comparison: C=CC(O)[C@H](CC(=O)O)NC(=O)CCC(=O)Nc1ccc(C(=N)N)cc1 (stereo partly drawn) [Ex 7 Step 5, 3S-[[4-[[4-(aminoiminomethyl)phenyl]amino]-1,4-dioxobutyl]amino]-4-hydroxy-hex-5-enoic acid, trifluoroacetate], pIC50 6.54. Against it:
- N=C(N)c1ccc(NC(=O)CCC(=O)N[C@@H]2COC(=O)C2)cc1 [Ex 1 Step 4, N-[4-(aminoiminomethyl)phenyl]-N'-(tetrahydro-5-oxo-3S-furanyl)butanediamide, Trifluoroacetate] — 1.02 log units lower, 5.52
- N=C(N)c1ccc(NC(=O)CCC(=O)NC(CC(=O)O)c2ccccc2O)cc1 (centres unmarked) [Ex 8 Step 1, 3-[[4-[[4-(aminoiminomethyl)phenyl]-amino]-1,4-dioxobutyl]amino-]3(-hydroxyphenyl)propanoic acid] — within 0.2 log units, 6.59
- N=C(N)c1ccc(NC(=O)CCC(=O)NC2CC(=O)Oc3ccccc32)cc1 (centres unmarked) [Ex 8 Step 2, N-[4-(aminoiminomethyl)phenyl]-N'-[3,4-dihydro-2-oxo-2H-1-benzopyran-4-yl]butanediamide, Trifluoroacetate] — within 0.2 log units, 6.70
- N=C(N)c1ccc(NC(=O)CCC(=O)N[C@H](CO)CC(=O)O)cc1 [Ex 1 Step 5, 3S-[[4-[[4-aminoiminomethyl)phenyl]amino]-1,4-dioxobutyl]amino]-4-hydroxybutanoic acid, trifluoroacetate] — 0.39 log units lower, 6.15
- N=C(N)c1ccc(NC(=O)CCC(=O)N[C@H]2CC(=O)OC2c2ccc(F)cc2)cc1 (single isomer, unassigned; diastereoisomer a) [Ex 4 Step 4] — 0.24 log units lower, 6.30

same assay, conditions: dog PRP, ADP 50 μM final concentration, 1 min preincubation at 37° C., aggregation monitored 1 min; unit inferred; read-out: IC50 (dosage at which 50% of platelet aggregation is inhibited)

Point of comparison: N=C(N)c1ccc(NC(=O)CCC(=O)N[C@@H](CC(=O)O)C(O)c2ccc(F)cc2)cc1 (single isomer, unassigned) [Ex 4 Step 5, 3S-[[4-[[4-(aminoiminomethyl)phenyl]amino]-1,4-dioxobutyl]amino]-4-hydroxy-(4-fluoro-phenyl)butanoic acid, trifluoroacetate], pIC50 6.82. Against it:
- N=C(N)c1ccc(NC(=O)CCC(=O)N[C@H]2CC(=O)OC2c2ccccc2)cc1 (single isomer, unassigned; isomer a) [Ex 2 Step 5, N-[4-(aminoiminomethyl)phenyl]-N'-(tetrahydro-5-oxo-2-phenyl-3S-furanyl)butanediamide, Trifluoroacetate (Isomer A)] — 0.63 log units lower, 6.19
- N=C(N)c1ccc(NC(=O)CCC(=O)N[C@H]2CC(=O)OC2c2ccccc2)cc1 (single isomer, unassigned; isomer b) [Ex 3 Step 1, N-[4-(aminoiminomethyl)phenyl]-N'-(tetrahydro-5-oxo-2-phenyl-3S-furanyl)butanediamide, trifluoroacetate (Isomer B)] — 1.22 log units lower, 5.60
- N=C(N)c1ccc(NC(=O)CCC(=O)N[C@H]2CC(=O)OC2c2ccc3c(c2)OCO3)cc1 (single isomer, unassigned; diastereoisomer 1) [Ex 9 Step 5, N-[4-(aminoiminomethyl)phenyl]-N'-[tetrahydro-5-oxo-2-[5-(1,3-benzodioxolyl)]-3S-furanyl]butanediamide, Trifluoroacetate; Diastereoisomer 1] — 0.45 log units lower, 6.37
- N=C(N)c1ccc(NC(=O)CCC(=O)N[C@@H](CC(=O)O)C(O)c2ccc3c(c2)OCO3)cc1 (single isomer, unassigned) [Ex 10 Step 2, 3S-[[4-[[4-(aminoiminomethyl)phenyl]amino]-1,4-dioxobutyl]amino-4-hydroxy-4-[5-(1,3-benzodioxolyl)]butanoic acid, trifluoroacetate] — 0.93 log units lower, 5.89
- N=C(N)c1ccc(NC(=O)CCC(=O)N[C@@H](CC(=O)O)C(O)c2ccc3c(c2)OCO3)cc1 (single isomer, unassigned) [Ex 9 Step 6, 3S-[[4-[[4-(aminoiminomethyl)phenyl]amino]-1,4-dioxobutyl]amino]-4-hydroxy-[5-(1,3-benzodioxolyl)]butanoic acid, trifluoroacetate] — 0.36 log units lower, 6.46
- N=C(N)c1ccc(NC(=O)CCC(=O)N[C@@H](CC(=O)O)C(O)c2ccccc2)cc1 (single isomer, unassigned) [Ex 3 Step 2, 3S-[[4-[[4-(aminoiminomethyl)phenyl]amino]-1,4-dioxobutyl]amino]-4-hydroxy-phenylbutanoic acid, trifluoroacetate] — 0.60 log units lower, 6.22
- N=C(N)c1ccc(NC(=O)CCC(=O)N[C@H]2CC(=O)OC2c2ccc3c(c2)OCO3)cc1 (single isomer, unassigned; diastereoisomer 2) [Ex 10 Step 1] — 1.30 log units lower, 5.52
- N=C(N)c1ccc(NC(=O)CCC(=O)NC(CC(=O)O)C(O)c2nccs2)cc1 (stereo not drawn) [Ex 6 Step 6, 3S-[[4-[[4-(aminoiminomethyl)phenyl]amino]-1,4-dioxobutyl]amino]-4-hydroxy-2-thiazolylbutanoic acid, trifluoroacetate] — 0.47 log units lower, 6.35
- N=C(N)c1ccc(NC(=O)CCC(=O)N[C@@H](CC(=O)O)C(O)c2ccccc2)cc1 (single isomer, unassigned) [Ex 2 Step 6, 3S-[[4-[[4-(aminoiminomethyl)phenyl]amino]-1,4dioxobutyl]amino]-4-hydroxy-phenyl-butanoic acid, trifluoroacetate] — 1.02 log units lower, 5.80
- N=C(N)c1ccc(NC(=O)CCC(=O)N[C@@H](CC(=O)O)C(O)c2ccc(F)cc2)cc1 (single isomer, unassigned) [Ex 5 Step 2, 3S-[[4-[[4-(aminoiminomethyl)-phenyl]amino]-1,4-]dioxobutyl]amino]-4-hydroxy-(4-fluoro-phenyl)butanoic acid, trifluoroacetate] — 0.72 log units lower, 6.10
